Measured values from patent US20220251079A1, “BENZO[B][1,8]NAPHTHYRIDINE ACETIC ACID DERIVATIVES AND METHODS OF USE” (STINGTHERA, INC., priority 2019, published 2022).

Columns and labels:
[1] = biological target: T1, human STING protein (140-379) (Homo sapiens, UniProt Q86WV6, H232R); assay: Radiometric filtration binding competition assay (WT_FBA_HIS-SUMO-hSWAT); details: read-out: WT-hSWAT IC50
T1 construct: 6XHIS-SUMO-hSTING (140-379); made in house; host or cells: BL-21(DE3) E. coli, pET vector
T1 sequence (Q86WV6 140-379 H232R): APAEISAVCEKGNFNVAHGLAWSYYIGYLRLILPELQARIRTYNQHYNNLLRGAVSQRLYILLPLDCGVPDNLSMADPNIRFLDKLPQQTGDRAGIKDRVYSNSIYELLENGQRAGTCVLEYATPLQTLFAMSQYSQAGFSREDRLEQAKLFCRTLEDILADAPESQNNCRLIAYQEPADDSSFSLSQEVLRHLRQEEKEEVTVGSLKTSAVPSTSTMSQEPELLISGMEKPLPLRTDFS
Description: A radiometric filtration binding competition assay was performed to quantify the binding affinity of compounds of the present application for the human or mouse STING protein, or associated HAQ human isoform. The competition format filtration binding assay detects the ability of small molecule compounds from binding to and inhibiting the subsequent binding of a tritiated [H3] […] The resulting dose response was fit by non-linear regression to determine an IC50 value, from which a Ki value for each compound was extrapolated.
Briefly, the recombinant C-terminal ligand binding domain of the human STING protein (140-379) or mouse STING protein (139-328) [0.5 μM] was incubated in the presence of a compound of the present application (8 point, 2 fold dilution starting at 300 μM) for 30 min or under control conditions. […] The resulting complexes were then filtered, dried, and scintillation fluid was added and the remaining radio signal was measured to determine the degree of compound ligand inhibition. This assay format was optimized for both the WT and HAQ isoforms of the human protein and the mouse orthologue protein.
Parameters optimized: • a. Form of protein: 6×HIS-SUMO tag or untagged • b. Concentration of target protein: Minimum concentration that achieved >80 max signal • c. Assay DMSO concentration: 10%-0.1% • d. Assay Buffer: Base (Tris or phosphate), Salt concentration, +/−Tween (0.1-2%) • e. […] Probe Concentration: Minimum concentration that achieved max assay window • g. Assay Format: Scintillation Proximity Bead or Filtration Binding Plate • h. Assay Plate: 384 vs 96 well format • i. Assay incubation times for successive incubation steps
WT-hSWAT: WT_FBA_HIS-SUMO-hSWAT IC50 (μM) (“WT”=Wild-type); and WT-mSWAT: MOUSE_FBA_HIS-SUMO-mSWAT C50 (μM) which is the mouse isoform of STING protein.

hSTING-R232 = biological target: T2, hSTING-R232 (Homo sapiens, UniProt Q86WV6, H232R); assay: STING Differential Scanning Fluorimetry (DSF) assay, human; assay type: binding; details: human STING R232-WT, 5 μM protein
T2 construct: recombinant mouse or human STING protein (aa140-379); 6xHis-SUMO elsewhere) (cleaved yes); made in house
T2 sequence (Q86WV6 140-379 H232R): as above
Description: A STING DSF assay was performed to determine protein thermostability shift in response to small molecule ligand binding. A STING thermostability shift assay based on differential scanning fluorimetry was used to measure (1) the net shift in melting temperature (ΔTm)between the apo and ligand-bound states of the STING protein and (2) the concentration of the thermal denaturation transition (FC50) as a surrogate measure of binding affinity (Kd). Briefly, recombinant mouse or human STING protein (aa140-379) comprising the C-terminal binding domain (R232-WT) were purified by affinity chromatography and further processed to remove the purification tag, followed by gel filtration to achieve purity >95%. Protein in assay buffer was transferred to a 384 well plate and incubated with the hydrophobic fluorescent dye SYBR Orange. A temperature ramp was applied to the plate and the resulting dye fluorescence was plotted as a function of temperature. The first derivative of this function (dF/dT) was then used to extrapolate the melting temperature of the protein at various concentrations of compound and determine the thermal denaturation profile of a protein/compound complex.
2. 5 μM purified Target STING Protein
4. Buffer: 100 mM NaCl, 30 mM HEPES, pH 7.5
5. Thermal Ramp: 0.5° C./min
7. 11 point, 2 fold dilution, duplicate, 300 μM high concentrations

STING protein = biological target: T3, STING protein (Homo sapiens, UniProt Q86WV6, H232R); assay: Cell based reporter assay of IRF activation (THP1-dual-KI R232, IRF luciferase); details: THP-1; read-out: THP1-dual-KI R232_IRF(Luciferase)_Activity Maximum measured (%)
T3 construct: host or cells: THP-1 dual reporter cells, TMEM173 modified from HAQ to R232 (THP1-dual-KI R232)
T3 sequence (Q86WV6 whole entry H232R): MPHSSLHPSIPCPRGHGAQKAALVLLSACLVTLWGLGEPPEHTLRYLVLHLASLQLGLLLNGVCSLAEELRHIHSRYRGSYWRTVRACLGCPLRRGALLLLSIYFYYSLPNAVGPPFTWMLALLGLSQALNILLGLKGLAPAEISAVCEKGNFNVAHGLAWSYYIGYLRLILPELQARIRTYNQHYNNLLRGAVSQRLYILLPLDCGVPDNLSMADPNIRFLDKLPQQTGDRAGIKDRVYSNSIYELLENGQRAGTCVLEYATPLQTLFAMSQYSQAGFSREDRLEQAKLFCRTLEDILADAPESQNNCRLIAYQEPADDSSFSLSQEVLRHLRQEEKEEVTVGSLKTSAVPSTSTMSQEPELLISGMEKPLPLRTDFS
Source text: Cell reporter assays were developed to measure the ability of compounds of the application to activate the STING protein and activate both IRF/IFN and the NFkB signaling pathways in the myeloid derived cell line THP-1, which is commercially available from several suppliers. Briefly, THP-1 monocytes were transfected and selected for stable integration of 2 reporter constructs. Clones incorporating stably integrated vectors were further selected by antibiotic resistance to blastocidin and zeocin. The reporter constructs included: (1) firefly luciferase reporter gene under the control of an ISG54 promoter fused to five interferon (IFN)-stimulated response elements to measure IRF transcription factor binding activity and (2) secreted embryonic alkaline phosphatase reporter gene under transcription control of an IFN-beta minimal promoter fused to 5 copies of the NFkB consensus transcriptional response element and 3 copies of the c-Rel binding site.
The resulting THP-1 cell line was further modified to incorporate 3 amino acid point mutations (H71R A230G Q293R). This modification of the native TMEM173 gene in THP-1 cells (HAQ) was designed to produce a cell reporter that expressed the most common allelic variant in the human population (THP-1 R232, available from InvivoGen). Alternatively, the TMEM173 gene was knocked out to provide a congenic control to counter-screen for compound activation that was independent of the STING protein (THP-1 STING KO).
Once cell lines were established, reporter assay protocols were developed and optimized to screen small molecule compounds for agonist activity. Assay optimization for efficacy and Z′ value included titration of the following parameters:
1. No pre-activation with PMA
2. […]cells/well in 96 well plate format
7. Cell Titer Glo reagent (Promega) following supermatant removal
9. 8 point, 2 fold, duplicate starting at 150 μM PP28T

SMILES	IC50 [1] [µM]	WT_DSF_hSWAT Tm Shift (° C.) (hSTING-R232)	Emax (STING protein) [%]
Cc1ccc2c(=O)c3ccc(Cl)c(N(C)C)c3n(CC(=O)NS(C)(=O)=O)c2n1 [Compound 10]	> 300	C (“C” = 2-7° C.)	> 50
CO[C@H]1C[C@@H](N(C)c2ccc3c(=O)c4ccc(C)c(N(C)C)c4n(CC(=O)O)c3n2)C1 [Compound 67, 2-(9-(dimethylamino)-2-(((1s,3s)-3-methoxycyclobutyl)(methyl)amino)-8-methyl-5-oxobenzo[b][1,8]naphthyridin-10(5H)-yl)acetic acid]	< 20	D (“D” > 7° C.)	> 50
CCOc1c(Cl)ccc2c(=O)c3ccc(N(C)CC4CCOCC4)nc3n(CC(=O)O)c12 [Compound 33, 2-(8-chloro-9-ethoxy-2-(methyl((tetrahydro-2H-pyran-4-yl)methyl)amino)-5-oxobenzo[b][1,8]naphthyridin-10(5H)-yl)acetic acid]	20 to 100	D (“D” > 7° C.)	> 50
CSc1c(Cl)ccc2c(=O)c3ccc(N(CC4CC4)CC4COC4)nc3n(CC(=O)O)c12 [Compound 38, sodium 2-(8-chloro-2-((cyclopropylmethyl)(oxetan-3-ylmethyl)amino)-9-(methylthio)-5-oxobenzo[b][1,8]naphthyridin-10(5H)-yl)acetate]	20 to 100	D (“D” > 7° C.)	> 50
Cc1nccn1CCN(C)c1ccc2c(=O)c3ccc(Cl)c(N(C)C)c3n(CC(=O)O)c2n1 [Compound 82, sodium 2-[8-chloro-9-(dimethylamino)-2-{methyl[2-(2-methylimidazol-1-yl)ethyl]amino}-5-oxobenzo[b]1,8-naphthyridin-10-yl]acetate]	100 to 300	D (“D” > 7° C.)	5 to 25
CSc1c(Cl)ccc2c(=O)c3ccc(C=C4COC4)nc3n(CC(=O)O)c12 [Compound 65, 2-(8-chloro-9-(methylthio)-2-(oxetan-3-ylidenemethyl)-5-oxobenzo[b][1,8]naphthyridin-10(5H)-yl)acetic acid]	20 to 100	D (“D” > 7° C.)	> 50
CSc1c(Cl)ccc2c(=O)c3ccc(NCC4COC4)nc3n(CC(=O)O)c12 [Compound 55, sodium 2-(8-chloro-9-(methylthio)-2-((oxetan-3-ylmethyl)amino)-5-oxobenzo[b][1,8]naphthyridin-10(5H)-yl)acetate]	20 to 100	D (“D” > 7° C.)	> 50
CN(C)c1ccc2c(=O)c3ccc(Cl)c(-c4ccccc4)c3n(CC(=O)O)c2n1 [Compound 79, 2-(8-chloro-2-(dimethylamino)-5-oxo-9-phenylbenzo[b][1,8]naphthyridin-10(5H)-yl)acetic acid]	20 to 100	D (“D” > 7° C.)	> 50
CC(C)(C)c1ccc2c(=O)c3ccc(Cl)c(F)c3n(CC(=O)O)c2n1 [Compound 14]	> 300	B (“B” = 0-2° C.)	> 50
CSc1c(Cl)ccc2c(=O)c3ccc(N(C)C4CC(OC(F)F)C4)nc3n(CC(=O)O)c12 (stereo not shown) [Compound 45, Sodium 2-(8-chloro-2-((3-(difluoromethoxy)cyclobutyl)(methyl)amino)-9-(methylthio)-5-oxobenzo[b][1,8]naphthyridin-10(5H)-yl)acetate]	20 to 100	D (“D” > 7° C.)	> 50
COCCN(CC(F)F)c1ccc2c(=O)c3ccc(Cl)c(SC)c3n(CC(=O)O)c2n1 [Compound 51, sodium 2-(8-chloro-2-((2,2-difluoroethyl)(2-methoxyethyl)amino)-9-(methylthio)-5-oxobenzo[b][1,8]naphthyridin-10(5H)-yl)acetate]	20 to 100	D (“D” > 7° C.)	> 50
CCOc1c(Cl)ccc2c(=O)c3ccc(C(C)=O)nc3n(CC(=O)O)c12 [Compound 31, sodium 2-(2-acetyl-8-chloro-9-ethoxy-5-oxobenzo[b][1,8]naphthyridin-10(5H)-yl)acetate]	100 to 300	C (“C” = 2-7° C.)	> 50
CSc1c(Cl)ccc2c(=O)c3ccc(N(C)CCS(C)(=O)=O)nc3n(CC(=O)O)c12 [Compound 34, Sodium 2-{8-chloro-2-[(2-methanesulfonylethyl)(methyl)amino]-9-(methylsulfanyl)-5-oxobenzo[b]1,8-naphthyridin-10-yl}acetate]	20 to 100	D (“D” > 7° C.)	25 to 50
CO[C@H]1C[C@@H](N(CC2CC2)c2ccc3c(=O)c4ccc(Cl)c(SC)c4n(CC(=O)O)c3n2)C1 [Compound 43, sodium 2-(8-chloro-2-((cyclopropylmethyl)(3-methoxycyclobutyl)amino)-9-(methylthio)-5-oxobenzo[b][1,8]naphthyridin-10(5H)-yl)acetate]	< 20	D (“D” > 7° C.)	> 50
COC1CC(CN(C)c2ccc3c(=O)c4ccc(Cl)c(SC)c4n(CC(=O)O)c3n2)C1 (stereo not shown) [Compound 39, Sodium 2-(8-chloro-2-(((3-methoxycyclobutyl)methyl)(methyl)amino)-9-(methylthio)-5-oxobenzo[b][1,8]naphthyridin-10(5H)-yl)acetate]	20 to 100	D (“D” > 7° C.)	> 50
CSc1c(Cl)ccc2c(=O)c3cc(Cl)c(N(C)CC4CCOCC4)nc3n(CC(=O)O)c12 [Compound 76, sodium 2-(3,8-dichloro-2-(methyl((tetrahydro-2H-pyran-4-yl)methyl)amino)-9-(methylthio)-5-oxobenzo[b][1,8]naphthyridin-10(5H)-yl)acetate]	< 20	D (“D” > 7° C.)	
CO[C@H]1C[C@H](N(C)c2ccc3c(=O)c4ccc(C)c(N(C)C)c4n(CC(=O)O)c3n2)C1 [Compound 66, 2-(9-(dimethylamino)-2-(((1r,3r)-3-methoxycyclobutyl)(methyl)amino)-8-methyl-5-oxobenzo[b][1,8]naphthyridin-10(5H)-yl)acetic acid]	100 to 300	C (“C” = 2-7° C.)	
